Consider five molecules from patent US6544541B1, “Devices and compounds for treating arterial restenosis” (Cardiovascular Solutions, Inc., priority 1999, dated 2003).

Series [1] deals with Friend erythroleukemia cells. Nature of the series: Friend cell differentiation. The class given is cell-based. An excerpt:
It is of note however that MIBG acts at a point in the differentiation pathway that is distinct from 3-aminobenzamide.

Another series deals with cell growth. Particulars: cited from earlier work.
For series [2], the system named is H4IIE hepatoma cells. Nature of the series: DNA synthesis (3H-thymidine incorporation) in H4IIE cells. The class given is cell-based. The settings on record: H4IIE cells. As to the method:
Incorporation of uridine or thymidine was used to define the change in rate of […] synthesis, respectively, in response to a mitogen such as insulin. Specifically, quiescent H4IIE cells were prepared by placing the cultures (in 24-well dishes) into serum-free a-minimal essential medium for 3 days. It is of note that the normal growth media for H4IIE cells is α-MEM containing 10% fetal bovine serum (FBS). After reaching quiescence, the cells were stimulated with 1 μM insulin and incubated for either 6 hours or 24 hours in the presence of 1 μCi/ml ^3H-uridine or ^3H-thymidine, respectively. Cells were subsequently lysed with detergent and the nucleic acids precipitated with 5% trichloroacetic acid. The precipitated material was collected on glass fibre filters and the radioactive content measured by scintillation counting. […] Furthermore, while complete inhibition of DNA synthesis by MIBG is obtained at approximately 20 μM, higher concentrations decrease basal DNA synthesis below control levels.

In series [3] the test system is H4IIE hepatoma cells. As to the kind of experiment: flow cytometry, bromodeoxyuridine incorporation in proliferating cells. Format: cell-based. The settings on record: 25 μM MIBG, 48 hours; FIG. 4. How it is done: Additional verification that MIBG blocked cell proliferation was obtained using flow cytometry analysis. Proliferating H4IIE cells (<40% confluent) were incubated for 48 hours in the presence or absence (untreated control or containing MIBA) of 25 μM MIBG. The cells were pulse labeled with bromodeoxyuridine (BrdU) 2 hours before harvest to label replicating DNA. Cells were released by trypsinization, collected by centrifugation and permeabilized with Triton X-100 (1%). Replicated DNA was labeled with an anti-BrdU antibody conjugated to FITC (fluorescein isothiocyanate), while total DNA was labeled with propidium iodide. The FITC and propidium iodide labels were detected at 514 nm and 600 nm, respectively, with a Coulter flow cytometer™ (excitation wavelength 488 nm), and number of cells containing these fluors were quantified. The data were plotted as cells with propidium iodide versus cells with BrdU. […] To summarize, the results described above indicate that MIBG is a potent inhibitor of cell proliferation. Furthermore, the cellular process affected by MIBG is active throughout the cell cycle. This conclusion is based on the fact that there is no accumulation of cells at a specific phase of the cell cycle. In addition, it is of note that there is no apparent decrease in cell number or an increase in smaller cells, both characteristics of cell death.

A further series has as its system H4IIE cells. As to the kind of experiment: lactate dehydrogenase (LDH) release toxicity assay. Format: cell-based. The settings on record: 96 hours; FIG. 5. As to the method:
To address the issue of MIBG toxicity, lactate dehydrogenase (LDH) release was measured after incubation with MIBG or MIBA. Quiescent H4IIE cells were prepared in 96-well dishes and treated with various concentrations of either MIBG or MIBA for 96 hours. To quantify the release of LDH from the cells, which only occurs if the cells are damaged or killed by the treatment, 100 μl of culture medium was transferred to a fresh dish. To this was added 100 μl of dye/catalyst mixture (Boehringer Mannheim cytotoxicity detection kitTM), and the samples were subsequently incubated for 30 minutes at 37° C. Absorbance of the solution was monitored at 490 nm. The colour intensity indicates the relative LDH content in the test samples. […] As a consequence, it is speculated that changes in LDH release may be coupled to non-toxic and reversible alterations in mitochondrial metabolism or membrane integrity as a result of MIBG treatment.

Series [4] relates to porcine coronary artery smooth muscle cells.
For the next series, the system named is smooth muscle cells. As to the kind of experiment: Boyden chamber smooth muscle cell migration in response to Angiotensin II. The settings on record: 20 μM; 10 μM Angiotensin II in lower compartment; FIG. 17. The class given is cell-based. How it is done: Specifically, smooth muscle cells were seeded into the upper chamber of a Boyden chamber, which consists of two compartments that are separated by a permeable membrane. […] Specifically, migration to the lower compartment was determined by counting cells on the underside of the membrane. Data are presented as means ± standard error for six independent determinations.

The test system of series [5] is porcine coronary arteries. Nature of the series: coronary artery organ culture after balloon angioplasty (neointimal index). Particulars: organ culture, relative to MIBG; FIG. 24. An excerpt:
Although smooth muscle cell cultures can be used to determine the ability of a compound to inhibit proliferation, these cells are not good indicators of a compound's ability to prevent restenosis. This statement stems from the fact that several processes, including cell migration, proliferation and synthesis of ECM degrading enzymes, must be coordinately activated in order for restenosis to occur. A novel organ culture system has therefore been developed in order to test the effectiveness of MIBG and other compounds at preventing restenosis (Wilson et al, 1999, Cardiac Res 42: 761-772). In brief, hearts are transported from the abattoir to the laboratory on ice. The left descending coronary artery is exposed and a balloon catheter is inserted past the first bifurcation. The balloon is inflated, and after 1 minute is deflated and withdrawn. The damaged region (approximately 20 mm in length) is excised, cut into 4 pieces of 5 mm and each piece is placed into an individual well of a culture dish. These segments can be maintained in media containing 20% serum for up to 21 days. Upon harvest of the tissue, typically after 14 days, the vessel segments are placed into resin for histological analysis. Sections are prepared from vessel segments after removal of the first 1.5 mm. […] This file is imported into SigmaScan™, and staining in the areas of the intimal and medial layers quantified. […]

In the next series the test system is porcine femoral artery. Nature of the series: balloon angioplasty of the porcine femoral artery in vivo. Also noted: species or system pigs. Particulars: in vivo femoral angioplasty, relative to MIBG; FIG. 25. An excerpt: To test the effectiveness of MIBG under in vivo conditions, this compound was applied to the femoral artery after balloon angioplasty. This model provided a means of testing both MIBG and the method of application. Specifically, male castrated farm pigs (25-30 kg) were anaesthetized and maintained on isoflurane throughout the procedure. With the pig in a supine position, the left femoral artery was exposed from the bifurcation of the femoral and superficial femoral arteries to the point of insertion of the femoral artery into the groin. A mixture of nitroglycerin and papaverine was applied to the vessel and the area was covered with a saline-soaked sponge to keep the tissues moist. The right femoral artery was also exposed, treated and covered with a sponge. The left femoral was then clamped at both groin insertion (proximal) and bifurcation (distal) points, and an arteriotomy made at the bifurcation. The balloon (6.0×20 mm) was inserted through the arteriotomy in a retrograde manner (i.e. toward the groin) to a position 20 mm from the arteriotomy and the proximal clamp removed. The balloon was inflated for 1 minute, deflated and carefully removed, and the arteriotomy was closed with 6.0 ProleneTM suture. MIBG in combination with a biocompatible glue, in this example, Tisseel®, was applied to the surface of the vessel extending from the arteriotomy to the proximal region past the site of balloon inflation. The fibrin glue ensured that MIBG slowly diffused into the vessel. Furthermore, the fibrin glue helps to retain MIBG at the site for several days. The right femoral was handled as described above. […] The extent of restenosis was subsequently monitored by morphometry. […] Digital images were captured with a DAGE-MTI CCD camera and analyzed with SigmaScan Software. The neointimal and medial areas are quantified and used to calculate the neointimal index: neointimal area/medial area. […] Even though the vehicle cannot be detected after 14 days, we conclude that it remains for the minimum period necessary.

For series [6] the following is noted: human studies; cited from earlier work.
Series [7] concerns smooth muscle cells derived from human arterial conduits. As to the kind of experiment: DNA synthesis and cytotoxicity in human smooth muscle cells. The settings on record: human cells; FIG. 26B.

A value given as a limit tells only on which side of the number the result lay.

`NC(=O)c1cccc(N)c1` [3-aminobenzamide]: the “effect on Friend cell differentiation” value in [1] is reported as “inhibits the commitment phase”. Moreover, the “concentrations at which cell growth is inhibited” value in the series on cell growth was no less than 1 mM.

Turning to `NCc1cccc(I)c1` [MIBA, meta-iodobenzylamine], the “inhibition of DNA synthesis (thymidine incorporation)” value in the series on H4IIE hepatoma cells [2] is “does not inhibit DNA synthesis”. Also, the “bromodeoxyuridine incorporation (DNA synthesis)” value in the series on H4IIE hepatoma cells [3] is “identical to those observed in the control cells”. The “concentration at which increased LDH release is detectable” value in the series on H4IIE cells is no less than 200 µM.

With `N=C(N)NCCCCN` [agmatine], in [4], the “inhibition of DNA synthesis in response to serum treatment” value is listed as “does not inhibit DNA synthesis”.

For `CC(C=NNC(=N)N)=NNC(=N)N` [methylGAG, methylglyoxal bis-(guanylhydrazone)], the “effectiveness in preventing cell growth” value is on record as “as effective as MIBG” with H4IIE hepatoma cells [2] (relative to MIBG) and “as effective as MIBG” in series [4] (smooth muscle cells, relative to MIBG). Moreover, the “smooth muscle cell migration” value with smooth muscle cells was “inhibited smooth muscle cell migration”. Also, the “effectiveness in preventing neointimal formation” value (in series [5]; in the series with porcine femoral artery) was “as effective as MIBG” in each case. Moreover, the “inhibition of thymidine incorporation, potency relative to MIBG” value in series [4] is given as “slightly more potent inhibitor than MIBG”. Besides, the “toxicity relative to MIBG” value in series [4] and in series [7] was “less toxicity” in each case. The “threshold of tolerance relative to MIBG” value in series [6] is “higher threshold of tolerance”.

On to benzylguanidine [BG], for which the “inhibition of DNA synthesis (thymidine incorporation)” value in the series with H4IIE hepatoma cells [2] was “did not inhibit thymidine incorporation”. In [4], the “inhibition of thymidine incorporation” value is “did not inhibit thymidine incorporation”.
